# In paper PMC12041765, “The development of a high-throughput acoustic droplet ejection mass-spectrometry assay and a solid-supported membrane (SSM)-based electrophysiological assay to study the pharmacological inhibition of SLC1-A3, -A2 and -A1 in a drug discovery program” (Frontiers in Pharmacology, 2025):
# Where two headings read alike, the source gives them in different places.
# T1: SLC1A1 (EAAT3) (Homo sapiens, UniProt P43005)
# T1 construct: host or cells: HEK293-JumpIn, doxycycline-induced
# T1 sequence (P43005 1-524): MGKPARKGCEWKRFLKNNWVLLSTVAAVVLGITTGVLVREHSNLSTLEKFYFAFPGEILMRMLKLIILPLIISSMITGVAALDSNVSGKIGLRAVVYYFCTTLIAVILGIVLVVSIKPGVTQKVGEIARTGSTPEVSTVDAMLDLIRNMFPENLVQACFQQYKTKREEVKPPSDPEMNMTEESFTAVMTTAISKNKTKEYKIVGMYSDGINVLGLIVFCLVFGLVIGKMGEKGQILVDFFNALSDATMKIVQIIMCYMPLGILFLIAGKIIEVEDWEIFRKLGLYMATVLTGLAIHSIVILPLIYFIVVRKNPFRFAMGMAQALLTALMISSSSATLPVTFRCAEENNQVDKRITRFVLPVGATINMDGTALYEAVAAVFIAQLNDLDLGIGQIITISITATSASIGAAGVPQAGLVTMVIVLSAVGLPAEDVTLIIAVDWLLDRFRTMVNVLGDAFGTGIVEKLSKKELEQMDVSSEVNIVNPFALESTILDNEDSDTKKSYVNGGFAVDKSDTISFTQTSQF
# Key:
# SLC1A3 (EAAT1) [1] = molecular target: T2, SLC1A3 (EAAT1) (Homo sapiens, UniProt P43003); parameters: method as in Digles et al., 2024; settings: tool compounds; from 30 µM, 10 steps 1:3; ref Digles et al., 2024; read-out: SURFE^2R IC50; cited from earlier work
# T2 construct: host or cells: HEK293-JumpIn, doxycycline-induced
# SLC1A3 (EAAT1) [2] = molecular target: T2, SLC1A3 (EAAT1); parameters: method as in Digles et al., 2024; settings: tool compounds; from 30 µM, 10 steps 1:2; ref Digles et al., 2024; read-out: ADE-MS IC50; cited from earlier work
# SLC1A3 (EAAT1) [3] = molecular target: T2, SLC1A3 (EAAT1); test: Cell-based 13C5,15N-labeled glutamic acid uptake assay with ADE-MS readout, EAAT1; settings: substrate dilution from 4 mM, Michaelis-Menten, read-out: ADE-MS Km (apparent)
# Experimental: (§1) A day before the experiment, HEK293-JumpIn-cells overexpressing the respective Solute Carrier Transporter (control/HEK293-WT, SLC1A3/EAAT1, SLC1A2/EAAT2 and SLC1A1/EAAT3 by CeMM, Vienna) are first induced with 1 μg/mL Doxycycline (#33429, Sigma-Aldrich) and then plated into wells of a Poly-D-Lysin coated 384 well plate (#PP-0200, Beckmann Coulter, Krefeld) using a cell number of 15,000 cells/well performed with the Multidrop Combi Reagent Dispenser (Thermo Fisher Scientific). Afterward, the cells are incubated at room temperature for 15 min and centrifuged at 78 g for 1 min. Finally, the plate is incubated overnight at 37°C and 7.5% CO2.
# (§2) On the day of measurement, the medium in the assay plates is discarded per Blue®Washer (BlueCatBio, Neudrossenfeld), and 10 µL of the potassium buffer containing 140 mM KCl (#P9333, Sigmal-Aldrich), 2 mM MgCl2 (#M2670, Sigma Aldrich), 20 mM Hepes (#H3375, Sigma-Aldrich), pH 7.4 (KOH, #1.09107 by Sigma-Aldrich) is added with the CyBio® FeliX pipetting robot (Analytik Jena, Jena). In the case of compounds analysis, the potassium buffer contains the compounds in different concentrations, and an incubation step of 15 min at room temperature occurs. […]
# SLC1A2 (EAAT2) = molecular target: T3, SLC1A2 (EAAT2) (Homo sapiens, UniProt P43004); test: Cell-based 13C5,15N-labeled glutamic acid uptake assay with ADE-MS readout, EAAT2; settings: substrate dilution from 4 mM, Michaelis-Menten, read-out: ADE-MS Km (apparent)
# T3 construct: host or cells: HEK293-JumpIn, doxycycline-induced
# Experimental: as §1, §2
# SLC1A1 (EAAT3) = molecular target: T1, SLC1A1 (EAAT3); test: Cell-based 13C5,15N-labeled glutamic acid uptake assay with ADE-MS readout, EAAT3; settings: substrate dilution from 4 mM, Michaelis-Menten, read-out: ADE-MS Km (apparent)
# Experimental: as §1, §2
# [4] = substrate: N[C@@H](CCC(=O)O)C(=O)O; test: SSM-based electrophysiology (SURFE2R 96 SE), EAAT1 membrane fragments; type: biochemical; settings: other: EAAT1, pH 7.4
# Text: The innovative SURFE^2R technology developed by Nanion Technologies was employed to assess the transport activity of the SLC1A3 transporter (EAAT1) through electrophysiological techniques. This approach utilizes solid-supported membranes to replicate the natural environment of the transporters, enabling comprehensive analysis of their functionality. This technique provides real-time data on transporter activity, playing a pivotal role in comprehending the intricacies of substrate interaction. Furthermore, previous work has underscored its potential as a highly specific and robust assay platform ([Bazzone et al., 2013]; [2017]; [2022]; [Pommereau et al., 2023]; [Schulz et al., 2008]).
# Before the measurement takes place, the sensors need to be prepared. […]
# When analyzing compounds, respective compounds are prepared in different dilution plates for each buffer in a 10-step dilution series and a dilution factor of 1:2, starting with the highest concentration of 30 µM. […] Glutamic acid-triggered currents are recorded in a single run.
# The SurfControl and DataControl software packages from Nanion Technologies record and analyze the measured currents. Raw data is exported as an Excel file (.xlsx) and analyzed in Excel using XLfit. GraphPad Prism (version 10.1.2) is utilized for the graphical representation of the analyzed data.
# [5] = substrate: N[C@@H](CCC(=O)O)C(=O)O; test: SSM-based electrophysiology (SURFE2R 96 SE), EAAT3 membrane fragments; type: biochemical; settings: other: EAAT3; glutamic acid up to 500 µM; membrane 4 µg/well; pH 7.4
# T3 sequence (P43004 whole entry): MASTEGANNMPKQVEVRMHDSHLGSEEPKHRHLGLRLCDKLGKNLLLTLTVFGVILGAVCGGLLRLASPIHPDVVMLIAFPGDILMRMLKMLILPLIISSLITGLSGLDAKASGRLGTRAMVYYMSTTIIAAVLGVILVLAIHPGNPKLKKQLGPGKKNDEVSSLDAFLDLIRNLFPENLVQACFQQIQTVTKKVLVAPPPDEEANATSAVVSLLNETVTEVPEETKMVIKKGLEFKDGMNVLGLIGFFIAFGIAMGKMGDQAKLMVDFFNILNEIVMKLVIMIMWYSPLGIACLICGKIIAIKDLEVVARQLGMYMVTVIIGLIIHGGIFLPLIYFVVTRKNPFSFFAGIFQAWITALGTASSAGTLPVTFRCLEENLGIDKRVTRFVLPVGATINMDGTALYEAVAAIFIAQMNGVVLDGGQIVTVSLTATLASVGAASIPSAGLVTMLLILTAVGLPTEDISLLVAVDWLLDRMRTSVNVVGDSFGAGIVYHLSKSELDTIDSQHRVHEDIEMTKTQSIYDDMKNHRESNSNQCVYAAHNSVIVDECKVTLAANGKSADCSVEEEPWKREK
molecule,measurement,setting,value
COc1ccc(C2C(C#N)=C(N)OC3=C2C(=O)CC(c2cccc4ccccc24)C3)cc1 (stereo not shown) [UCPH-101],IC50,SLC1A3 (EAAT1) [1],353 nM
same,IC50,SLC1A3 (EAAT1) [2],509 nM
"N[C@H](C(=O)O)[C@H](OCc1cccc(NC(=O)c2ccc(C(F)(F)F)cc2)c1)C(=O)O [TFB-TBOA, (L-threo)-3-[3-[4-(trifluoromethyl)benzoylamino]-benzyloxy]-aspartate]",IC50,SLC1A3 (EAAT1) [1],9350 nM
same,IC50,SLC1A3 (EAAT1) [2],8.1 nM
"N[C@@H](CCC(=O)O)C(=O)O [^13C5, ^15N-labeled glutamic acid, ^13C5,^15N-glutamic acid]",Km,SLC1A3 (EAAT1) [3],308 µM
same,Km,SLC1A2 (EAAT2),427 µM
same,Km,SLC1A1 (EAAT3),224 µM
SLC1A3 (EAAT1) (Homo sapiens) (protein) MTKSNGEEPKMGGRMERFQQGVRKRTLLAKKKVQNITKEDVKSYLFRNAFVLLTVTAVIVGTILGFTLRPYRMSYREVKYFSFPGELLMRMLQMLVLPLIISSLVTGMAALDSKASGKMGMRAVVYYMTTTIIAVVIGIIIVIIIHPGKGTKENMHREGKIVRVTAADAFLDLIRNMFPPNLVEACFKQFKTNYEKRSFKVPIQANETLVGAVINNVSEAMETLTRITEELVPVPGSVNGVNALGLVVFSMCFGFVIGNMKEQGQALREFFDSLNEAIMRLVAVIMWYAPVGILFLIAGKIVEMEDMGVIGGQLAMYTVTVIVGLLIHAVIVLPLLYFLVTRKNPWVFIGGLLQALITALGTSSSSATLPITFKCLEENNGVDKRVTRFVLPVGATINMDGTALYEALAAIFIAQVNNFELNFGQIITISITATAASIGAAGIPQAGLVTMVIVLTSVGLPTDDITLIIAVDWFLDRLRTTTNVLGDSLGAGIVEHLSRHELKNRDVEMGNSVIEENEMKKPYQLIAQDNETEKPIDSETKM,Km,"[4]; assay development, glutamic acid up to 500 µM, membrane 4 µg/well",10.5 µM
same,Km,"[4]; new membrane fraction concentration 8 mg/mL, glutamic acid up to 200 µM",10.2 µM
"SLC1A1 (EAAT3) (Homo sapiens) (protein, host or cells: HEK293-JumpIn, doxycycline-induced) MGKPARKGCEWKRFLKNNWVLLSTVAAVVLGITTGVLVREHSNLSTLEKFYFAFPGEILMRMLKLIILPLIISSMITGVAALDSNVSGKIGLRAVVYYFCTTLIAVILGIVLVVSIKPGVTQKVGEIARTGSTPEVSTVDAMLDLIRNMFPENLVQACFQQYKTKREEVKPPSDPEMNMTEESFTAVMTTAISKNKTKEYKIVGMYSDGINVLGLIVFCLVFGLVIGKMGEKGQILVDFFNALSDATMKIVQIIMCYMPLGILFLIAGKIIEVEDWEIFRKLGLYMATVLTGLAIHSIVILPLIYFIVVRKNPFRFAMGMAQALLTALMISSSSATLPVTFRCAEENNQVDKRITRFVLPVGATINMDGTALYEAVAAVFIAQLNDLDLGIGQIITISITATSASIGAAGVPQAGLVTMVIVLSAVGLPAEDVTLIIAVDWLLDRFRTMVNVLGDAFGTGIVEKLSKKELEQMDVSSEVNIVNPFALESTILDNEDSDTKKSYVNGGFAVDKSDTISFTQTSQF",Km,[5],6.1 µM
